Data published in publication PMC4498294, “Tetrahydroisoquinolines affect the whole-cell phenotype of Mycobacterium tuberculosis by inhibiting the ATP-dependent MurE ligase” (Journal of Antimicrobial Chemotherapy, 2015).
In brackets after ≈: the same amount, converted by molar mass. Several values for one entry are separate records, joined by “and”; a condition that tells them apart may be missing. Equal entries are not always repeated. Where two headings read alike, the source gives them in different places.

Tests used:
M. bovis BCG Pasteur = test: microbe, parasite or virus in culture; type: cell-based; details: for MIC: Mycobacterium tuberculosis variant bovis BCG, BCG; for MIC M. bovis BCG: SPOTi, 2 weeks at 37°C
[1] = tested on: murine macrophage cell line RAW264.7; test: Eukaryotic cell toxicity assay, RAW264.7; type: cell-based; details: Mus musculus
M. tuberculosis H37Rv = test: SPOTi growth inhibition assay, M. tuberculosis H37Rv; type: cell-based; details: Mycobacterium tuberculosis, H37RV
[2] = molecular target: MurE (Rv2158c) protein of M. tuberculosis H37Rv (Mycobacterium tuberculosis, UniProt P9WJL3); test: Mtb-MurE HPLC inhibition assay; type: biochemical; details: HPLC assay, 37°C 30 min
R. equi RHA1 = test: SPOTi assay, R. equi RHA1; type: cell-based, Rhodococcus equi; details: LB, 30°C 48 h
E. coli K12 = test: SPOTi assay, E. coli; type: cell-based, Escherichia coli; details: LB, 37°C overnight
P. putida = test: SPOTi assay, P. putida; type: cell-based, Pseudomonas putida; details: LB, 37°C overnight
[3] = 336 h, read-out: MIC M. bovis BCG, SPOTi, 2 weeks at 37°C
[4] = read-out: MIC M. bovis BCG, SPOTi, value in square brackets
[5] = RAW264.7, value in square brackets, read-out: GIC50 RAW264.7
[6] = murine macrophage cell line RAW264.7, read-out: GIC50 RAW264.7
[7] = RAW264.7, read-out: GIC50 RAW264.7
[8] = 336 h, SPOTi, 2 weeks at 37°C, read-out: MIC M. tuberculosis H37Rv
[9] = SPOTi, value in square brackets, read-out: MIC M. tuberculosis H37Rv

Chain of MurE (Rv2158c) protein of M. tuberculosis H37Rv (P9WJL3 whole entry, looked up): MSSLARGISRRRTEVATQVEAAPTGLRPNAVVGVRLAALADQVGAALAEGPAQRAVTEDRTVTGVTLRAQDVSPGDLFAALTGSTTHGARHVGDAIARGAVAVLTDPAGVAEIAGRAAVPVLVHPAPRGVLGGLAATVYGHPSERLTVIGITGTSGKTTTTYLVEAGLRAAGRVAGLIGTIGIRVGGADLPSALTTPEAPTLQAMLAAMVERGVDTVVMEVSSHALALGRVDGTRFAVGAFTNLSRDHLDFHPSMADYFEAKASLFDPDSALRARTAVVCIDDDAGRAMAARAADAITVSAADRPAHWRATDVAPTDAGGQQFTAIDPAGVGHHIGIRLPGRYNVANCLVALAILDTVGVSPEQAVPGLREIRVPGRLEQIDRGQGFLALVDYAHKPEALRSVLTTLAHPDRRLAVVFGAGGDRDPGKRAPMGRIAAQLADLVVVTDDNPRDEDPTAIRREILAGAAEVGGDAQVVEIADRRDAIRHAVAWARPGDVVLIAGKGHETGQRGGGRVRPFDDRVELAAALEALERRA

| SMILES | MIC (M. bovis BCG Pasteur; [3]) [µg/mL] | MIC (M. bovis BCG Pasteur; [4]) [µM] | IC50 [1, 5] [µM] | IC50 [1, 6] [µg/mL] | also measured |
| --- | --- | --- | --- | --- | --- |
| C[C@@H]1NC(Cc2ccc3c(c2)OCO3)c2ccc(O)cc2[C@H]1O (stereo partly shown) [Compound 25] | > 100 | > 319 | 578 | 181 |  |
| Oc1cc2c(cc1O)C(c1cccs1)NCC2 (stereo not shown) [Compound 9] | > 100 | > 404 |  |  | IC50 [1, 7]: 56 µg/mL and 226 µM |
| Oc1ccc2c(c1)CCNC2Cc1ccccc1 (stereo not shown) [Compound 16] | > 60 | 418 | 683 | 195 | MIC M. bovis BCG (M. bovis BCG Pasteur): 100 µg/mL (≈ 418 µM) |
| Oc1cc2c(cc1O)[C@@H](O)CNC2c1cccc2c1OCO2 (stereo partly shown) [Compound 30] | > 100 | > 332 | 295 | 89 |  |
| Oc1cc2c(cc1O)C(c1cncc3ccccc13)NCC2 (stereo not shown) [Compound 12] | > 100 | > 342 | > 855 | > 250 |  |
| Nc1ccc2c(c1)CCNC2Cc1ccccc1 (stereo not shown) [Compound 15] | > 100 | > 420 | 789 | 188 |  |
| Oc1cc2c(cc1O)C(C1CCCCC1)NCC2 (stereo not shown) [Compound 23] | > 100 | > 404 | 182 | 45 | MIC (M. tuberculosis H37Rv; [8]): > 100 µg/mL; MIC (M. tuberculosis H37Rv; [9]): > 404 µM |
| Oc1ccc2c(c1)CCNC2c1cccc2c1OCO2 (stereo not shown) [Compound 34] | > 100 | > 371 | 672 | 181 | IC50 [2]: > 1000 µM |
| O=C(O)[C@@H]1Cc2cc(O)c(O)cc2C(Cc2ccc3c(c2)OCO3)N1 (stereo partly shown) [Compound 26] | > 100 | > 291 | 533 | 183 |  |
| COc1ccc(I)c2c1C(Cc1ccc3c(c1)OCO3)NCC2 (stereo not shown) [Compound 38] | 50 | 118 | 66 | 28 | MIC (M. tuberculosis H37Rv; [8]): 30 µg/mL; MIC (M. tuberculosis H37Rv; [9]): 71 µM; IC50 [2]: < 111 µM |
| COc1ccc(C2NCCc3cc(O)c(O)cc32)cc1 (stereo not shown) [Compound 5] | > 100 | > 369 | 335 | 91 |  |
| NC[C@H]1O[C@H](O[C@H]2[C@H](O)[C@@H](O[C@H]3O[C@H](CO)[C@@H](O)[C@H](N)[C@H]3O)[C@H](N)C[C@@H]2N)[C@H](O)[C@@H](O)[C@@H]1O [Kanamycin, reference compound] |  |  |  |  | MIC R. equi RHA1 (R. equi RHA1): 1 µg/mL (≈ 2.06 µM); MIC E. coli K12 (E. coli K12): 1 µg/mL (≈ 2.06 µM); MIC P. putida (P. putida): 10 µg/mL (≈ 20.6 µM) |
| COc1cc(CC2NCCc3cc(O)c(O)cc32)ccc1O (stereo not shown) [Compound 19] | > 100 | > 332 | 166 | 50 |  |
| Oc1cc2c(cc1O)[C@@H](O)CN[C@H]2Cc1ccccc1 [Compound 10] | > 60 |  |  |  | MIC (M. bovis BCG Pasteur; 336 h, read-out: MIC M. bovis BCG, SPOTi, value in square brackets): 271 µM; MIC M. bovis BCG (M. bovis BCG Pasteur): 100 µg/mL (≈ 369 µM); IC50 [1, 7]: > 250 µg/mL and > 566 µM |
| Oc1cccc(CC2NCCc3cc(O)c(O)cc32)c1 (stereo not shown) [Compound 17] | > 100 | > 369 | 236 | 64 |  |
| Oc1cc2c(cc1O)C(Cc1ccccc1Br)NCC2 (stereo not shown) [Compound 21] | > 100 | > 299 | 141 | 47 |  |
| Oc1cc2c(cc1O)C(c1ccccc1O)NCC2 (stereo not shown) [Compound 8] | > 100 | > 389 | 338 | 87 |  |
| CC(C)=CCC[C@H](C)CC1NCCc2cc(O)c(O)cc21 (stereo partly shown) [Compound 13] | > 60 | 346 | > 864 | > 250 | MIC M. bovis BCG (M. bovis BCG Pasteur): 100 µg/mL (≈ 346 µM) |

| SMILES | MIC (M. bovis BCG Pasteur; [3]) [µg/mL] | MIC (M. bovis BCG Pasteur; [4]) [µM] | IC50 [1, 5] [µM] | IC50 [1, 6] [µg/mL] | also measured |
| --- | --- | --- | --- | --- | --- |
| OC[C@@H](O)[C@@H]1NCCc2cc(O)c(O)cc21 [Compound 14] | > 100 | > 444 | 377 | 85 |  |
| COc1cc2c(c(O)c1OC)C[C@H]1c3c(cc4c(c3-2)OCO4)CCN1C [(S)-Leucoxine (1), (S)-Leucoxine] | 25 | 70 | 352 | 125 | MIC (M. tuberculosis H37Rv; [8]): 30 µg/mL; MIC (M. tuberculosis H37Rv; [9]): 84 µM; IC50 [2]: 820 µM |
| COc1ccc(Br)c2c1C(Cc1ccc3c(c1)OCO3)NCC2 (stereo not shown) [Compound 37] | 30 | 53 | 80 | 30 | MIC M. bovis BCG (M. bovis BCG Pasteur): 20 µg/mL (≈ 53.2 µM); MIC (M. tuberculosis H37Rv; 336 h, read-out: MIC M. tuberculosis H37Rv, SPOTi, 2 weeks at 37°C): 40 µg/mL; MIC (M. tuberculosis H37Rv; [9]): 106 µM; IC50 [2]: 165 µM |
| Oc1cccc(C2NCCc3cc(O)c(O)cc32)c1 (stereo not shown) [Compound 7] | > 100 | > 389 | 342 | 88 |  |
| CN1C[C@H](O)c2cc(O)c(O)cc2[C@@H]1c1cccc2c1OCO2 [Compound 31] | > 100 | > 317 | 434 | 137 |  |
| COc1cccc2c1C(Cc1ccc3c(c1)OCO3)NCC2 (stereo not shown) [Compound 40] | > 50 | > 168 | 740 | 220 | MIC (M. tuberculosis H37Rv; [8]): > 100 µg/mL; MIC (M. tuberculosis H37Rv; [9]): > 336 µM; IC50 [2]: 300 µM |
| Oc1cc2c(cc1O)C(c1cccc3c1OCO3)NCC2 (stereo not shown) [Compound 29] | > 100 | > 351 | 263 | 75 | IC50 [2]: 471 µM |
| CN1C[C@H](O)c2cc(O)c(O)cc2[C@H]1c1cccc2c1OCO2 [Compound 32] | > 100 | > 317 | 574 | 181 |  |
| Oc1cc2c(c(O)c1O)C(c1cccc3c1OCO3)NCC2 (stereo not shown) [Compound 33] | > 100 | > 332 | 18 | 5.5 | IC50 [2]: 148 µM |
| Oc1cc2c(cc1O)C(Cc1ccccc1)NCC2 (stereo not shown) [Compound 3] | > 100 | > 392 | 313 | 81 |  |
| Oc1cc2c(cc1O)C(c1ccccn1)NCC2 (stereo not shown) [Compound 4] | > 100 | > 413 | 248 | 60 |  |
| Oc1ccc(CC2NCCc3cc(O)c(O)cc32)cc1 (stereo not shown) [Norcoclaurine (2), Norcoclaurine] | > 100 | > 369 | 1570 | 425 | IC50 [2]: 837 µM |
| Oc1ccc(C2NCCc3cc(O)c(O)cc32)cc1 (stereo not shown) [Compound 6] | > 100 | > 389 | 358 | 92 |  |
| Oc1ccc2c(c1)CCNC2Cc1ccc2c(c1)OCO2 (stereo not shown) [Compound 27] | 100 | 353 | 529 | 150 | IC50 [2]: > 1000 µM |
| O=C(O)[C@@H]1Cc2cc(O)c(O)cc2[C@@H](Cc2ccccc2)N1 [Compound 11] | > 100 | > 334 | 291 | 87 |  |
| COc1ccc(CC2NCCc3cc(O)c(O)cc32)cc1OC (stereo not shown) [Compound 18] | > 100 | > 317 | 178 | 56 |  |
| CC1(C(=O)O)NCCc2cc(O)c(O)cc21 (stereo not shown) [Compound 22] | > 100 | > 448 | 797 | 178 |  |
